Measurements published in patent US20240398947A1, “CAR T-CELL ADJUVANT THERAPIES” (CytoAgents, Inc., priority 2020, published 2024).

Assays:
CRS = experiment: Mouse model of CAR T-cell therapy induced CRS (Raji-luc tumor); conditions: IP, BID for 7 days
normal human PBMC [1] = experiment: Cytokine release assay in stimulated normal human PBMC (Luminex multiplex); format: cell-based; conditions: for significant reduction of IL-1α / significant reduction of IL-1β: 5 donors
normal human PBMC [2] = experiment: AlamarBlue cell viability of treated PBMC; format: cell-based; conditions: PBMC of Donors 1-5, 48 hours post stimulation, GP1681 750 μM
Experimental: Following pre-treatment, cells were stimulated with either LPS or Poly (I:C). Twenty-four to forty-eight hours post-stimulation supernatants were collected and tested both for viability (48 hours) as well as concentrations of 29 different cytokines (24 hours.). Viability assessments confirmed the lack of GP1681-associated cell cytotoxicity. Statistical comparisons in individual donor results were conducted between all test groups within each donor group (between individual stimulant-treatment pairs) to determine efficacy of stimulation as well as any potential GP1681 effects on cytokine production. Additionally, statistical analysis was performed on pooled donor data for each cytokine stimulant-treatment pair to comprehensively determine cytokine suppression effects of GP1681 for each cytokine.
After resting the cells, 100 μl of GP1681 was added to appropriate wells at a final dosing concentration of 750 μM. […] For cell stimulation, 20 μL of the 1.0 ng/ml LPS solution or the 250 μg/ml Poly (I:C) solution were added to appropriate wells according to the group designation. Twenty-four hours later 100 uL of supernatant were collected from all wells and stored for cytokine analysis. Approximately four hours before final harvest, AlamarBlue dye was added to all wells. At forty-eight hours post stimulation all samples were collected, and supernatants tested for cell viability. […]

influenza (H1N1) = format: in vivo, mice
influenza (H5N1) = conditions: in vivo influenza (H5N1), Gemmus Pharma studies; cited from earlier work
[3] = LPS-stimulated PBMC, 24 h supernatant, DEX 1 μM, GP1681 750 μM
[4] = Poly(I:C)-stimulated PBMC, 24 h supernatant, DEX 1 μM, GP1681 750 μM
[5] = in vivo influenza (H1N1), current CytoAgents studies

Compound: CC#CC[C@H](C)[C@H](O)/C=C/[C@@H]1[C@H]2c3cccc(CCCC(=O)[O-])c3O[C@H]2C[C@H]1O.[Na+] [GP1681, esuberaprost sodium salt]
- cytokine production, comparison with dexamethasone (CRS): superior to dexamethasone
- survival benefits over dexamethasone (CRS): greater survival benefits
- number of cytokines reduced of the 29 cytokines analyzed (normal human PBMC [1]; LPS or Poly(I:C) stimulated PBMC, pooled and individual donor results): 21
- significant reduction of IL-1α (normal human PBMC [1]; [3]): YES
- significant reduction of IL-1β (normal human PBMC [1]; [3]): YES
- significant reduction of CCL2 (MCP-1) (normal human PBMC [1]; [3]): YES
- significant reduction of CCL3 (MIP1 α) (normal human PBMC [1]; [3]): YES
- significant reduction of CCL5 (RANTES) (normal human PBMC [1]; [3]): YES
- significant reduction of CXCL9 (MIG) (normal human PBMC [1]; [3]): YES
- significant reduction of CXCL10 (IP-10) (normal human PBMC [1]; [3]): YES
- significant reduction of FGF (normal human PBMC [1]; [3]): YES
- significant reduction of GM-CSF (normal human PBMC [1]; [3]): YES
- significant reduction of IFN-α2 (normal human PBMC [1]; [3]): YES
- significant reduction of IFN-γ (normal human PBMC [1]; [3]): YES
- significant reduction of IL-4 (normal human PBMC [1]; [3]): YES
- significant reduction of IL-5 (normal human PBMC [1]; [3]): YES
- significant reduction of IL-9 (normal human PBMC [1]; [3]): YES
- significant reduction of IL-12 (normal human PBMC [1]; [3]): YES
- significant reduction of IL-13 (normal human PBMC [1]; [3]): YES
- significant reduction of IL-15 (normal human PBMC [1]; [3]): YES
- significant reduction of IL-17 (normal human PBMC [1]; [3]): YES
- significant reduction of IL-18 (normal human PBMC [1]; [3]): YES
- significant reduction of PDGF (normal human PBMC [1]; [3]): YES
- significant reduction of TNF α (normal human PBMC [1]; [3]): YES
- significant reduction of IL-1α (normal human PBMC [1]; [4]): YES
- significant reduction of IL-1β (normal human PBMC [1]; [4]): YES
- significant reduction of CCL2 (MCP-1) (normal human PBMC [1]; [4]): YES
- significant reduction of CCL5 (RANTES) (normal human PBMC [1]; [4]): YES
- significant reduction of CXCL9 (MIG) (normal human PBMC [1]; [4]): YES
- significant reduction of CXCL10 (IP-10) (normal human PBMC [1]; [4]): YES
- significant reduction of IFN-α2 (normal human PBMC [1]; [4]): YES
- significant reduction of IFN-γ (normal human PBMC [1]; [4]): YES
- significant reduction of IL-4 (normal human PBMC [1]; [4]): YES
- significant reduction of IL-5 (normal human PBMC [1]; [4]): YES
- significant reduction of IL-12 (normal human PBMC [1]; [4]): YES
- significant reduction of IL-13 (normal human PBMC [1]; [4]): YES
- significant reduction of IL-15 (normal human PBMC [1]; [4]): YES
- significant reduction of IL-18 (normal human PBMC [1]; [4]): YES
- significant reduction of PDGF (normal human PBMC [1]; [4]): YES
- significant reduction of TNF α (normal human PBMC [1]; [4]): YES
- number of different cytokines whose production is down regulated (normal human PBMC [1]; data from Gemmus Pharma, Inc studies and the present work together): approximately 25
- nominal reduction in the ex vivo production of IFNα (normal human PBMC [1]; stimulated PBMC, statistically significant): less than 2 fold
- cytotoxicity (Alamar blue viability assessment) (normal human PBMC [2]): no cytotoxicity
- IL-2 reduced by treatment (influenza (H1N1); [5]): reduced
- IL-6 reduced by treatment (influenza (H1N1); [5]): reduced
- IL-10 reduced by treatment (influenza (H1N1); [5]): reduced
- IL-8 production suppressed by treatment (influenza (H1N1); mouse, in vivo): significantly suppressed
- repression of IFNα concentrations (influenza (H1N1); mouse, in vivo): no significant repression
- IL-2 reduced by treatment (influenza (H5N1)): reduced
- IL-6 reduced by treatment (influenza (H5N1)): reduced
- IL-8 reduced by treatment (influenza (H5N1)): reduced
- IL-10 reduced by treatment (influenza (H5N1)): reduced
